The results in this text go back to PMC10528299, “Targeting FAK/PYK2 with SJP1602 for Anti-Tumor Activity in Triple-Negative Breast Cancer” (Current Issues in Molecular Biology, 2023).

Holding throughout (experiment): Eurofins kinase profiling
Assay type in all cases: biochemical

One experiment has as its target T1, B-Raf(h) (Homo sapiens, UniProt P15056).
T1 construct: purchased Eurofins KinaseProfiler
The note with it: read-out: residual kinase activity B-Raf(h). Here is the method: (§1) The kinase profiling analysis was performed at Eurofins (Poitiers, France). A total of 110 kinase assays were carried out according to Eurofins’ standard protocols. For protein kinase assays, the kinase activity was measured using Eurofins’ KinaseProfiler radiometric assay. In this assay, a panel of kinases was incubated with the test compound SJP1602 at a concentration of 1 µM, and the kinase activity was determined using radiolabeled phosphate as a substrate. Lipid and atypical kinase assays were conducted using Eurofins’ homogeneous time-resolved fluorescence assay. The same panel of kinases was incubated with SJP1602 at a concentration of 1 µM, and the activity of lipid and atypical kinases was measured using this assay.

Another experiment has as its target T2, CHK2(h) (Homo sapiens, UniProt O96017).
T2 construct: purchased Eurofins KinaseProfiler
The note with it: read-out: residual kinase activity CHK2(h). Here is the method:
as §1

In the next experiment the target is T3, CK1γ2(h) (Homo sapiens, UniProt P78368).
T3 construct: purchased Eurofins KinaseProfiler
T3 sequence (P78368 whole entry): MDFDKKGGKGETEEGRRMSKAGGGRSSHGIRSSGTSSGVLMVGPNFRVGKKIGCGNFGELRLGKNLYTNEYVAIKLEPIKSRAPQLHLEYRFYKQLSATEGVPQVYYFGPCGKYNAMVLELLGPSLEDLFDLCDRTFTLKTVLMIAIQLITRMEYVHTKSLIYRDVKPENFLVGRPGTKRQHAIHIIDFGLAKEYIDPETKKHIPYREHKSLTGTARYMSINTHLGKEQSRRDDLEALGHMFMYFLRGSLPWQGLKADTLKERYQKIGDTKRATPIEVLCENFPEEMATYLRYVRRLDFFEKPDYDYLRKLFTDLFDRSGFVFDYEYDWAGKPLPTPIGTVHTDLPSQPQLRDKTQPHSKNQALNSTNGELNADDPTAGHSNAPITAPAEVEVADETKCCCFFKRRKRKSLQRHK
The note with it: read-out: residual kinase activity CK1γ2(h). As for the experimental part:
as §1

A further experiment has as its target T4, EGFR(L858R)(h) (Homo sapiens, UniProt P00533, L858R).
T4 construct: purchased Eurofins KinaseProfiler
The note with it: read-out: residual kinase activity EGFR(L858R)(h). Here is the method: as §1

The next experiment concerns the target T5, EphA2(h) (Homo sapiens, UniProt P29317).
T5 construct: purchased Eurofins KinaseProfiler
As to conditions: read-out: residual kinase activity EphA2(h). Here is the method:
as §1

A further experiment deals with T6, FGFR1(h) (Homo sapiens, UniProt P11362).
T6 construct: purchased Eurofins KinaseProfiler
T6 sequence (P11362 22-822): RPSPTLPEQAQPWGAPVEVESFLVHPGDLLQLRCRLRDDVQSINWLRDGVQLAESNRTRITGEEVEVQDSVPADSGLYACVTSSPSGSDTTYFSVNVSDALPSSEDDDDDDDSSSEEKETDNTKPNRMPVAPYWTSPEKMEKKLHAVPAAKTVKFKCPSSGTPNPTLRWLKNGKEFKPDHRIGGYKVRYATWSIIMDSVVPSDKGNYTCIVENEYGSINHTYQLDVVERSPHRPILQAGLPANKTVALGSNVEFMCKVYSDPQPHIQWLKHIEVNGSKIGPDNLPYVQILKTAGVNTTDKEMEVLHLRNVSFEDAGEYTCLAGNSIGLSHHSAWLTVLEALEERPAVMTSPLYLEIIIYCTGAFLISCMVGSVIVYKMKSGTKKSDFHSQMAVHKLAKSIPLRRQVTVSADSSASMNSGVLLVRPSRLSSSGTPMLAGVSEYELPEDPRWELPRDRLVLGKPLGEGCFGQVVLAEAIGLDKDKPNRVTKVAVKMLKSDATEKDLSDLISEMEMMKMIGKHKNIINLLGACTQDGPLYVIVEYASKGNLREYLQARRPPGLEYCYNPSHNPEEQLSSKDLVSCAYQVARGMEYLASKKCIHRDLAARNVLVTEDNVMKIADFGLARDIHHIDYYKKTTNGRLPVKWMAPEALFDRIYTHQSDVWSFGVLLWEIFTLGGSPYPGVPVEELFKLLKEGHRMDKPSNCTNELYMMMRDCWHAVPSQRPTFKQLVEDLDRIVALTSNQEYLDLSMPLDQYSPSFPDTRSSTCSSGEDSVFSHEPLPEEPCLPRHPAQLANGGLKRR
The note with it: read-out: residual kinase activity FGFR1(h). As for the experimental part:
as §1

Another experiment addresses T7, IKKε(h) (Homo sapiens, UniProt Q14164).
T7 construct: purchased Eurofins KinaseProfiler
T7 sequence (Q14164 1-716): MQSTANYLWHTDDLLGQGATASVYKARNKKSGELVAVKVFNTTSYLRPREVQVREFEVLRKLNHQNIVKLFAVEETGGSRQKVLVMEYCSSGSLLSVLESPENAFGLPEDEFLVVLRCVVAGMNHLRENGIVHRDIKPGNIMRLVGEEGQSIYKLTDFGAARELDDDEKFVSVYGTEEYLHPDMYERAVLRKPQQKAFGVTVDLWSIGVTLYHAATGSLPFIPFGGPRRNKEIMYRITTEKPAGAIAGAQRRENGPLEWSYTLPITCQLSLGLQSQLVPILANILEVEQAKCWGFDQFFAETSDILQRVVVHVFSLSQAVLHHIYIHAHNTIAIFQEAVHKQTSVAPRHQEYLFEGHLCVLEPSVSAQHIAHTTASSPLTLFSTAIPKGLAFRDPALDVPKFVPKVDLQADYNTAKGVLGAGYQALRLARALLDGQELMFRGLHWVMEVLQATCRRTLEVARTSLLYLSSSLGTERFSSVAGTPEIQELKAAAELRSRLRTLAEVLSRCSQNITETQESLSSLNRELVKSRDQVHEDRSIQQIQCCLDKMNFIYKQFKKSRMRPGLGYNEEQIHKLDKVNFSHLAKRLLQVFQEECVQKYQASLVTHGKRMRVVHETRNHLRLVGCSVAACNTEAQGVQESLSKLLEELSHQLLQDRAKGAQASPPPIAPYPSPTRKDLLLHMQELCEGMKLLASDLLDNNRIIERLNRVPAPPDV
The note with it: read-out: residual kinase activity IKKε(h). Here is the method:
as §1

A further experiment addresses T8, MEK1(h) (Homo sapiens, UniProt Q02750).
T8 construct: purchased Eurofins KinaseProfiler
As to conditions: read-out: residual kinase activity MEK1(h). As for the experimental part:
as §1

The target of a further experiment is T9, PAK4(h) (Homo sapiens, UniProt O96013).
T9 construct: purchased Eurofins KinaseProfiler
As to conditions: read-out: residual kinase activity PAK4(h). As for the experimental part: as §1

A further experiment addresses T10, PDGFRα(D842V)(h) (Homo sapiens, UniProt P16234, D842V).
T10 construct: purchased Eurofins KinaseProfiler
The note with it: read-out: residual kinase activity PDGFRα(D842V)(h). As for the experimental part:
as §1

The target in experiment [1] is T11, PI3 Kinase (p110a(H1047R)/p85a)(h) (Homo sapiens, UniProt P42336, H1047R).
T11 construct: purchased Eurofins KinaseProfiler
As to conditions: read-out: residual kinase activity PI3 Kinase (p110a(H1047R)/p85a)(h). As for the experimental part:
as §1

Experiment [2] has as its target T12, PI3 Kinase (p110d/p85a)(h) (Homo sapiens, UniProt O00329).
T12 construct: purchased Eurofins KinaseProfiler
As to conditions: read-out: residual kinase activity PI3 Kinase (p110d/p85a)(h). As for the experimental part: as §1

The next experiment addresses T13, PKCη(h) (Homo sapiens, UniProt P24723).
T13 construct: purchased Eurofins KinaseProfiler
The note with it: read-out: residual kinase activity PKCη(h). Here is the method: as §1

The next experiment deals with T14, Ros(h) (Homo sapiens, UniProt P08922).
T14 construct: purchased Eurofins KinaseProfiler
T14 sequence (P08922 28-2347): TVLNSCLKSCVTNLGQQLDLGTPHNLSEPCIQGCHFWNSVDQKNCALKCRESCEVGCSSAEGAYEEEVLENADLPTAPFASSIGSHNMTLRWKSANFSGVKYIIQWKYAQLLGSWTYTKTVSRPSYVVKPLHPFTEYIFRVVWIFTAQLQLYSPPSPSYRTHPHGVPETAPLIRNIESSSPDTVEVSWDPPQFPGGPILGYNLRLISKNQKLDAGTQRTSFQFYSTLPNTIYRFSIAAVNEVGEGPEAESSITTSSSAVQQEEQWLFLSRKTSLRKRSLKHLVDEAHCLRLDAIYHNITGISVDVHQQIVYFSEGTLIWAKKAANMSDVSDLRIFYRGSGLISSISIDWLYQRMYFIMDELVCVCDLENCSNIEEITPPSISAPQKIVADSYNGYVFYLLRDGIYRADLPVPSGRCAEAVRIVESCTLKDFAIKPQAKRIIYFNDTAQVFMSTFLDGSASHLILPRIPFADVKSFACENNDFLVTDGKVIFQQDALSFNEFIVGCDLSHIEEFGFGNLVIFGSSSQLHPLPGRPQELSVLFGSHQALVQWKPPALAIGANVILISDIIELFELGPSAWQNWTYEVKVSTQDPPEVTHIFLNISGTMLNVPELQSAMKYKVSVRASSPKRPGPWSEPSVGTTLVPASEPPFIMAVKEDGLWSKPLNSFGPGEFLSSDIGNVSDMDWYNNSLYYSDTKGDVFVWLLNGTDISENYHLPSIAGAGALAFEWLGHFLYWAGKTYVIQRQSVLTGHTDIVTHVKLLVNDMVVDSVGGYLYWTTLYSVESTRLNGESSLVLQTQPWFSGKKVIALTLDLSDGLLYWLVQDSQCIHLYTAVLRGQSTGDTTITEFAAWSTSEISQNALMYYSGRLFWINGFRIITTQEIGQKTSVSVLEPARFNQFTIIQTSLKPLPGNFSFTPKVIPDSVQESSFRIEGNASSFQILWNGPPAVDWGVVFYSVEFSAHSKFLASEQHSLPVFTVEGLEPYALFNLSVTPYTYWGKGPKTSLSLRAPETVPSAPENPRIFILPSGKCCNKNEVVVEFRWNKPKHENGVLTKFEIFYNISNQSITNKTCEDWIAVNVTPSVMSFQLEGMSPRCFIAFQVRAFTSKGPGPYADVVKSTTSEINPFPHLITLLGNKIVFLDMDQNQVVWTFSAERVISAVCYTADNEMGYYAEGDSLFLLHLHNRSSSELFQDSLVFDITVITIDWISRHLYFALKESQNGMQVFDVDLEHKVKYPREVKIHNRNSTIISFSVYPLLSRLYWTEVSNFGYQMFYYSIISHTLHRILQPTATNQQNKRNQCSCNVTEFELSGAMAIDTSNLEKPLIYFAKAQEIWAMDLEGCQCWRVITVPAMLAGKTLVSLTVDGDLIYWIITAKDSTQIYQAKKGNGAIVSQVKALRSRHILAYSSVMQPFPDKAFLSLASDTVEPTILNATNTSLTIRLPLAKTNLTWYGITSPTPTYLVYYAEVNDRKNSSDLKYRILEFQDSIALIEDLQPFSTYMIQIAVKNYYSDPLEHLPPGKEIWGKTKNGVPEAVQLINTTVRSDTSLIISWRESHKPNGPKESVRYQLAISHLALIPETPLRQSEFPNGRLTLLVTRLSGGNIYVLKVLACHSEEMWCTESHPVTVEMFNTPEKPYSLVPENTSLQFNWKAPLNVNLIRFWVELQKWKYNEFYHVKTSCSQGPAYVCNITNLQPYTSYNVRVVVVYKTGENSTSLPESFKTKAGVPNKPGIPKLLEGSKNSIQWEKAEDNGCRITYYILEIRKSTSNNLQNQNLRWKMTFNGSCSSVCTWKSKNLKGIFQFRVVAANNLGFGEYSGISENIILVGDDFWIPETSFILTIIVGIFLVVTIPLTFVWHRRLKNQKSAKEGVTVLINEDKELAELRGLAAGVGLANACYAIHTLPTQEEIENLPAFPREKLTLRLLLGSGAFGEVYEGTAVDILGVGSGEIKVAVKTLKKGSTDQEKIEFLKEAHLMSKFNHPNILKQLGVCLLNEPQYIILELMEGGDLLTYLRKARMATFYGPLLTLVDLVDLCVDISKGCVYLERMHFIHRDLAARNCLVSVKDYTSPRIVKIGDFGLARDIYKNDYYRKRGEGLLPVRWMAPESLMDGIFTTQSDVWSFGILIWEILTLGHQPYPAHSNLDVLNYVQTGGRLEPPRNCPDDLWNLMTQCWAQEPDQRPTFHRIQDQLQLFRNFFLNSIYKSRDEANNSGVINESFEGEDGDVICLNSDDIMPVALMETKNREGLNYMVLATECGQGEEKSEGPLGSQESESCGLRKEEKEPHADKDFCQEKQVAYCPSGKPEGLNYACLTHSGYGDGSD
The note with it: read-out: residual kinase activity Ros(h). As for the experimental part:
as §1

The target of a further experiment is T15, Tie2 (h) (Homo sapiens, UniProt Q02763).
T15 construct: purchased Eurofins KinaseProfiler
The note with it: read-out: residual kinase activity Tie2 (h). Here is the method:
as §1

A further experiment concerns the target T16, TrkA(h) (Homo sapiens, UniProt P04629).
T16 construct: purchased Eurofins KinaseProfiler
As to conditions: read-out: residual kinase activity TrkA(h). As for the experimental part: as §1

The target of a further experiment is T17, TrkC(h) (Homo sapiens, UniProt Q16288).
T17 construct: purchased Eurofins KinaseProfiler
The note with it: read-out: residual kinase activity TrkC(h). Here is the method:
as §1

T1 sequence (P15056 whole entry): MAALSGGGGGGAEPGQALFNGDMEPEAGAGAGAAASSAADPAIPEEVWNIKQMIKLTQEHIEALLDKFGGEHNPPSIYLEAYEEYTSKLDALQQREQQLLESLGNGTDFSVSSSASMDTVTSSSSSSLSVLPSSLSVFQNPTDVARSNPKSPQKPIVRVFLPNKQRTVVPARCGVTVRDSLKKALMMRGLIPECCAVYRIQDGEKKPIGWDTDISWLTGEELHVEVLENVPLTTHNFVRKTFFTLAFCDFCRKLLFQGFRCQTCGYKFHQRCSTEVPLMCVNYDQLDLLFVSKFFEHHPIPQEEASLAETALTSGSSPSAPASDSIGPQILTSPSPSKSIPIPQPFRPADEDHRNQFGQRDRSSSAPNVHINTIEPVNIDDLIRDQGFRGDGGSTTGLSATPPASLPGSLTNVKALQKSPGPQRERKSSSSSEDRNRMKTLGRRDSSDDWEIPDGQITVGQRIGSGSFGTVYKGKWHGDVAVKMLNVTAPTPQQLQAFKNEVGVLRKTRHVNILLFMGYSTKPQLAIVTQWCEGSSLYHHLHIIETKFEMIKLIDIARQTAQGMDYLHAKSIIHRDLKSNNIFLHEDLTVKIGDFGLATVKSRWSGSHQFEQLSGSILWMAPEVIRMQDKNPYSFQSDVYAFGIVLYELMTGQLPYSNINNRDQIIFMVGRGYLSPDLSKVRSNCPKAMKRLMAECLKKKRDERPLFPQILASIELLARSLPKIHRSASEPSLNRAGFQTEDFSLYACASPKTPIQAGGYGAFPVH
T16 sequence (P04629 33-796): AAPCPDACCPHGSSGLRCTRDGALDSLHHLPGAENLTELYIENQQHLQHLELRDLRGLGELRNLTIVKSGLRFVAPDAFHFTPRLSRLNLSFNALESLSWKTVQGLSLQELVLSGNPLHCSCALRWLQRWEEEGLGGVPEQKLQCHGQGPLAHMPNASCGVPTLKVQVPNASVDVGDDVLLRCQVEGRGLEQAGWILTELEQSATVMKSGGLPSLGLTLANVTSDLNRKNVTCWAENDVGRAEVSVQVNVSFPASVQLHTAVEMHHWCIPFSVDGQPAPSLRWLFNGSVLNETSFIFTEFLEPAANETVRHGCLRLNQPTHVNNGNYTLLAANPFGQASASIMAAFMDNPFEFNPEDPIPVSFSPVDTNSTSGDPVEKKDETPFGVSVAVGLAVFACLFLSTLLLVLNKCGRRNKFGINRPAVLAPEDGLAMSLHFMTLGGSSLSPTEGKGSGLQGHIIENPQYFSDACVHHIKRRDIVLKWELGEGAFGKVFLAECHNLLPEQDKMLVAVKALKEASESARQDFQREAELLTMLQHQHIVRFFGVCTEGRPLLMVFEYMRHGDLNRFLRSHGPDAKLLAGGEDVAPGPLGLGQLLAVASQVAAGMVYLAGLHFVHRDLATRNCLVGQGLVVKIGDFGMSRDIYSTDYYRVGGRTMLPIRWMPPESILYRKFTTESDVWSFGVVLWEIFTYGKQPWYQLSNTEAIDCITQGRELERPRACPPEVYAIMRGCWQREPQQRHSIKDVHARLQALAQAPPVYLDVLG

For the molecule `CONC(=O)c1ccccc1Nc1cc(Nc2cc(C)nn2C(C)C)ncc1Cl` [GSK2256098], the remaining activity at 1 µM worked out at 99% at B-Raf(h); 59% at CHK2(h); 97% at CK1γ2(h); 33% at EGFR(L858R)(h); 92% at EphA2(h); 109% at FGFR1(h). In addition, the remaining activity at 1 µM worked out at 102% at IKKε(h); 101% at MEK1(h); 93% at PAK4(h); 119% on PDGFRα(D842V)(h); 97% in [1]; 115% in experiment [2]. The remaining activity at 1 µM is 97% on PKCη(h); 103% at Ros(h); 108% at Tie2 (h); 103% on TrkA(h); 104% at TrkC(h).

Turning to `CNC(=O)c1cccc(C)c1Nc1nc(Nc2ccc(N3CCN(C4C5CC6CC4CC(O)(C6)C5)CC3)cc2OC)ncc1C(F)(F)F` (stereo not drawn) [SJP1602, 2-((2-((4-(4-((2s,5r)-5-hydroxyadamantan-2-yl)piperazin-1-yl)-2-methoxyphenyl)amino)-5-(trifluoromethyl)pyrimidin-4-yl)amino)-N,3-dimethylbenzamide], the remaining activity at 1 µM was determined as 93% at B-Raf(h); 51% on CHK2(h); 101% at CK1γ2(h); 133% at EGFR(L858R)(h); 105% at EphA2(h); 111% on FGFR1(h). Moreover, the remaining activity at 1 µM at IKKε(h) amounted to 103%; on MEK1(h), 98%; at PAK4(h), 85%; at PDGFRα(D842V)(h) it was 141%; in experiment [1], 97%; in [2], 91%. Besides, the remaining activity at 1 µM at PKCη(h) was determined as 95%; at Ros(h) it was 104%; on Tie2 (h), 105%; on TrkA(h), 109%; at TrkC(h), 120%.

In the case of `CNC(=O)c1ccc(Nc2ncc(C(F)(F)F)c(NCc3nccnc3N(C)S(C)(=O)=O)n2)cc1` [VS-6063, Defactinib], the remaining activity at 1 µM came to 83% on B-Raf(h); 71% at CHK2(h); 64% on CK1γ2(h); 134% at EGFR(L858R)(h); 91% on EphA2(h); 43% on FGFR1(h). Moreover, the remaining activity at 1 µM on IKKε(h) amounted to 88%; on MEK1(h), 93%; at PAK4(h), 42%; at PDGFRα(D842V)(h), 87%; in experiment [1], 101%; in experiment [2], 88%. Further, the remaining activity at 1 µM is 104% at PKCη(h); 106% at Ros(h); 82% on Tie2 (h); 2% on TrkA(h); 13% on TrkC(h).
